In patent publication US10307413B2, “Tetrahydro- and dihydro-isoquinoline PRMT5 inhibitors and uses thereof” (Epizyme, Inc., priority 2013, dated 2019):
Read-outs that look alike come from different tables or passages of the source.

Tests used:
PRMT5/MEP50 = PRMT5/MEP50 (Homo sapiens (Human), UniProt O14744); test: PRMT5 Biochemical Assay (PRMT5/MEP50 enzyme assay on peptide substrate, 3H-SAM Flashplate)
In short: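 Radiometric methylation of a biotin-tagged H4(1-15) peptide by human PRMT5/MEP50 from baculovirus/Sf9, with ³H-SAM incorporation read on streptavidin Flashplates. Buffer: Bicine pH 7.6, TCEP, BSG, Tween20; compound preincubated 30 min at 25 °C; stopped with 600 µM final unlabeled SAM. DMSO and SAH controls; IC50 from fitted % inhibition.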

[1] = system: symmetric di-methyl arginine in Z-138 cells; test: Z-138 Methylation Assay (In Cell Western for symmetric di-methyl arginine and DNA content); assay type: cell-based; conditions: Homo sapiens, read-out: ICW EC50
In short: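 Z-138 cells (50,000 cells/mL) treated with compound 96 h at 37 °C, then fixed and stained for symmetric di-methyl arginine (800 nm) with DRAQ5 DNA counterstain (700 nm) on Licor Odyssey.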

Z-138 cell line = test: Z-138 Proliferation Assay (Cell Titer Glo, 5 days); assay type: cell-based; conditions: Homo sapiens, read-out: Proliferation EC50
In short: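 Z-138 cells exposed 5 days at 37 °C, 5% CO2 to nine-point 3-fold dilutions (final top 20 μM, 0.2% DMSO), in triplicate. Viability read as ATP by CellTiter-Glo luminescence; IC50 from 4-parameter fit of normalized dose-response curves.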

[2] = 120 h, Z-138 cells, 5 days, Cell Titer Glo

PRMT5/MEP50, sequence (O14744 other isoform, or with tags, fused parts or gaps): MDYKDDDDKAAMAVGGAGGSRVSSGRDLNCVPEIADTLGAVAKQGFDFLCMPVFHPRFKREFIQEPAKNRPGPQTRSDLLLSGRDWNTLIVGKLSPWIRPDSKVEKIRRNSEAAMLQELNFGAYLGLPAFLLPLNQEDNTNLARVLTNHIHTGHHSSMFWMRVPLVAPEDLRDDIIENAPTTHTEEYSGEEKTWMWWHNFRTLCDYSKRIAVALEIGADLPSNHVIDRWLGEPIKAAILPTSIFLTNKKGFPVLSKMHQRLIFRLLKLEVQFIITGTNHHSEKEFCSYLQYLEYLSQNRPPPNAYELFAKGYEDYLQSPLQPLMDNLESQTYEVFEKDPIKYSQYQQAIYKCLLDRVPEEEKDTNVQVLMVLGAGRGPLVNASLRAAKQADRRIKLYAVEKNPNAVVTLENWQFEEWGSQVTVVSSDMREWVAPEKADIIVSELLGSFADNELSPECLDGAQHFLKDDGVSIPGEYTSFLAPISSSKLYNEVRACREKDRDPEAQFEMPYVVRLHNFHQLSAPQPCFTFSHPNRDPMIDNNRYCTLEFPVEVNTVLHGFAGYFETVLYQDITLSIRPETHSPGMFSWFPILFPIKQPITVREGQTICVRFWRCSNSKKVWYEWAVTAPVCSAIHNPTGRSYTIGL
PRMT5/MEP50, sequence (Q9BQA1 other isoform, or with tags, fused parts or gaps partner): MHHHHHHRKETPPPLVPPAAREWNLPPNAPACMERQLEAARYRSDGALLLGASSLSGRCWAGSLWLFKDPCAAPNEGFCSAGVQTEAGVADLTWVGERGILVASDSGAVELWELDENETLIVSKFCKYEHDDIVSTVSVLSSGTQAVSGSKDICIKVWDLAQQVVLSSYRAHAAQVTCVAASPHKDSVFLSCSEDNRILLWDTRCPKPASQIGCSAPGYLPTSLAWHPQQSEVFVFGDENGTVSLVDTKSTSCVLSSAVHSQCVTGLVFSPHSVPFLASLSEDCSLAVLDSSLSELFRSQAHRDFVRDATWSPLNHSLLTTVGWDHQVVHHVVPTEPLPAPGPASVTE

Structure (SMILES)	IC50 (PRMT5/MEP50; PRMT5 biochemical assay)	EC50 ([1]; In Cell Western methylation)	EC50 (Z-138 cell line; [2])	IC50 (PRMT5/MEP50)	EC50 [1]	EC50 (Z-138 cell line; 120 h, Z-138 cells, 5 days)	EC50 (Z-138 cell line; Z-138, 120 h)
CC(=O)N1CC(Nc2cc(C(=O)NC[C@H](O)CN3CCc4ccccc4C3)nc(N3CCOCC3)n2)C1 [Compound 443]	< 100 nM	< 100 nM	< 100 nM				
Cc1cnc(NC2CN(S(C)(=O)=O)C2)cc1C(=O)NC[C@H](O)CN1CCc2ccccc2C1 [Compound 379]				< 100 nM	< 100 nM	1000 to 10000 nM	
CN(C)CCOc1ccc(C(=O)NC[C@H](O)CN2CCc3ccccc3C2)cc1 [Compound 384]				< 100 nM	< 100 nM	1000 to 10000 nM	
O=C(NC[C@H](O)CN1CCc2ccccc2C1)c1cc(Nc2cc[nH]n2)ncn1 [Compound 431]	< 100 nM	< 100 nM	1000 to 10000 nM				
CN(C[C@H](O)CN1CCc2ccccc2C1)C(=O)c1cc(NC2COC2)ncn1 [Compound 364]				101 to 1000 nM	101 to 1000 nM	1000 to 10000 nM	
COCCO[C@H]1C[C@@H](Nc2cc(C(=O)NC[C@H](O)CN3CCc4ccccc4C3)ncn2)C1 [Compound 560]	< 100 nM	< 100 nM	101 to 1000 nM				
CC(C)NCCOc1ccc(C(=O)NC[C@H](O)CN2CCc3ccccc3C2)cc1 [Compound 390]				< 100 nM	< 100 nM	1000 to 10000 nM	
CC(C)(C)c1nc(NC2CNC2)cc(C(=O)NC[C@H](O)CN2CCc3ccccc3C2)n1 [Compound 522]	< 100 nM	< 100 nM	1000 to 10000 nM				
CC(=O)N1CC(Nc2cc(C(=O)NCC(O)C(C)N3CCc4ccccc4C3)ncn2)C1 (stereo not drawn) [Compound 608]	101 to 1000 nM	> 1000 nM	> 5000 nM				
O=C(NC[C@H](O)CN1CCc2ccccc2C1)c1cc(NC2COC2)nc(NC2COC2)n1 [Compound 547]	< 100 nM	< 100 nM	< 100 nM				
CNCCCOc1ccc(C(=O)NC[C@H](O)CN2CCc3ccccc3C2)cc1 [Compound 392]				< 100 nM	< 100 nM	1000 to 10000 nM	
CN(C)CCN(C)c1nc(NC2COC2)cc(C(=O)NC[C@H](O)CN2CCc3ccccc3C2)n1 [Compound 525]	< 100 nM	< 100 nM	101 to 1000 nM				
CC(C)c1nc(NC2COC2)cc(C(=O)NC[C@H](O)CN2CCc3ccccc3C2)n1 [Compound 449]	< 100 nM	< 100 nM	101 to 1000 nM				
CC(=O)N1CCC(Nc2cc(C(=O)NC[C@H](O)CN3CCc4ccccc4C3)nc(N3CCOCC3)c2)CC1 [Compound 678]	< 100 nM	< 100 nM	101 to 1000 nM				
CCC(=O)N1CCN(c2nc(NC3CNC3)cc(C(=O)NC[C@H](O)CN3CCc4ccccc4C3)n2)CC1 [Compound 484]	< 100 nM	< 100 nM	1000 to 10000 nM				
O=C(NC[C@H](O)CN1CCc2ccccc2C1)c1cc(NC2COC2)nc(N2CCNCC2)n1 [Compound 461]	< 100 nM	< 100 nM	< 100 nM				
CC(C)C(=O)N1CC(Nc2cc(C(=O)NC[C@H](O)CN3CCc4ccccc4C3)ncn2)C1 [Compound 416]	< 100 nM	< 100 nM	< 100 nM				
CN(C)[C@H]1CC[C@H](Nc2cc(C(=O)NC[C@H](O)CN3CCc4ccccc4C3)ncn2)CC1 [Compound 593]	< 100 nM	< 100 nM	101 to 1000 nM				
CCSCCN1CCC(Nc2cc(C(=O)NC[C@H](O)CN3CCc4ccccc4C3)ncn2)CC1 [Compound 570]	< 100 nM	< 100 nM					1000 to 10000 nM
CC(=O)N1CCC(Nc2cc(C(=O)NC[C@H](O)CN3CCc4ccc(C)cc4C3)ncn2)CC1 [Compound 668]	< 100 nM	< 100 nM	1000 to 10000 nM				
CN[C@H]1CC[C@H](Nc2cc(C(=O)NC[C@H](O)CN3CCc4ccccc4C3)ncn2)CC1 [Compound 661]	< 100 nM	< 100 nM	101 to 1000 nM				
CC(C)CC(=O)N1CC(Nc2cc(C(=O)NC[C@H](O)CN3CCc4ccccc4C3)ccn2)C1 [Compound 504]	< 100 nM	< 100 nM	< 100 nM				
O=C(NC[C@H](O)CN1CCc2ccccc2C1)c1cc(N[C@H]2C[C@H](N3CCOCC3)C2)ncn1 [Compound 558]	< 100 nM	< 100 nM	101 to 1000 nM				
O=C(NC[C@H](O)CN1CCc2ccccc2C1)c1cnnc(OC2CCNCC2)c1 [Compound 619]	< 100 nM	101 to 1000 nM	10000 to 50000 nM				
CC(C)CN1CC(Nc2cc(C(=O)NC[C@H](O)CN3CCc4ccccc4C3)ncn2)C1 [Compound 438]	< 100 nM	101 to 1000 nM	1000 to 10000 nM				

Structure (SMILES)	IC50 (PRMT5/MEP50; PRMT5 biochemical assay)	EC50 ([1]; In Cell Western methylation)	EC50 (Z-138 cell line; [2])	IC50 (PRMT5/MEP50)	EC50 [1]	EC50 (Z-138 cell line; 120 h, Z-138 cells, 5 days)	EC50 (Z-138 cell line; Z-138, 120 h)
COCCN1CC(Nc2ccnc(C(=O)NC[C@H](O)CN3CCc4ccccc4C3)c2)C1 [Compound 576]	< 100 nM	< 100 nM	1000 to 10000 nM				
CN(C)CCCNc1cc(C(=O)NC[C@H](O)CN2CCc3ccccc3C2)ncn1 [Compound 354]				< 100 nM	< 100 nM	1000 to 10000 nM	
CO[C@H]1C[C@@H](Nc2cc(C(=O)NC[C@H](O)CN3CCc4ccccc4C3)ncn2)C1 [Compound 563]	< 100 nM	< 100 nM	101 to 1000 nM				
CC(=O)N1CCC(Nc2cc(C(=O)NCC(F)CN3CCc4ccccc4C3)ncn2)CC1 (stereo not drawn) [Compound 656]	101 to 1000 nM	101 to 1000 nM	> 5000 nM				
CO[C@H]1C[C@H](Nc2cc(C(=O)NC[C@H](O)CN3CCc4ccccc4C3)ncn2)C1 [Compound 559]	< 100 nM	< 100 nM	101 to 1000 nM				
O=C(NC[C@H](O)CN1CCc2ccccc2C1)c1ccnc(NC2COC2)c1 [Compound 378]				< 100 nM	> 1000 nM	> 20000 nM	
CS(=O)(=O)CCNc1cc(C(=O)NC[C@H](O)CN2CCc3ccccc3C2)ncn1 [Compound 555]	< 100 nM	101 to 1000 nM	1000 to 10000 nM				
O=C(NC[C@H](O)CN1CCc2ccccc2C1)c1ccnc(NC2CN(C(=O)C3CC3)C2)c1 [Compound 490]	< 100 nM	< 100 nM	< 100 nM				
O=C(NC[C@H](O)CN1CCc2ccccc2C1)c1cnnc(NC2CCNC2)c1 (stereo partly drawn) [Compound 686]	< 100 nM	> 1000 nM	> 5000 nM				
CNC(=O)CN1CC(Nc2cc(C(=O)NC[C@H](O)CN3CCc4ccccc4C3)ncn2)C1 [Compound 622]	< 100 nM	1000 to 10000 nM	1000 to 10000 nM				
O=C(NCC(O)CN1CCc2ccccc2C1)c1ccccc1-c1ccccn1 (stereo not drawn) [Compound 12, N-(3-(3,4-dihydroisoquinolin-2(1H)-yl)-2-hydroxypropyl)-2-(pyridin-2-yl)benzamide]				101 to 1000 nM	1000 to 10000 nM	> 20000 nM	
CC(=O)[C@H]1CC[C@H](Nc2cc(C(=O)NC[C@H](O)CN3CCc4ccccc4C3)ncn2)CC1 [Compound 600]	< 100 nM	< 100 nM	1000 to 10000 nM				
O=C(NC[C@H](O)CN1CCc2ccccc2C1)c1ncnc(NC2COC2)c1F [Compound 422]	< 100 nM	< 100 nM	1000 to 10000 nM				
COCCN1CCN(c2nc(NC3COC3)cc(C(=O)NC[C@H](O)CN3CCc4ccccc4C3)n2)CC1 [Compound 496]	< 100 nM	< 100 nM	< 100 nM				
NC(=O)[C@H]1CC[C@H](Nc2cc(C(=O)NC[C@H](O)CN3CCc4ccccc4C3)ncn2)CC1 [Compound 601]	< 100 nM	< 100 nM	101 to 1000 nM				
CC(=O)N1CC(Nc2cc(C(=O)NC[C@H](O)CN3CCc4ccccc4C3)nc(N3CCN(C)CC3)n2)C1 [Compound 442]	< 100 nM	< 100 nM	101 to 1000 nM				
O=C(NC[C@H](O)CN1CCc2ccccc2C1)c1cc(NC2CCN(C(=O)C3CCC3)CC2)ccn1 [Compound 566]	< 100 nM	< 100 nM	< 100 nM				
O=C(NC[C@H](O)CN1CCc2ccccc2C1)c1ccc(OCCN2CCCC2)cc1 [Compound 383]				< 100 nM	< 100 nM	1000 to 10000 nM	
C[C@@H](N1CC(Nc2cc(C(=O)NC[C@H](O)CN3CCc4ccccc4C3)ncn2)C1)C(F)(F)F [Compound 446]	< 100 nM	< 100 nM	1000 to 10000 nM				
O=C(NC[C@H](O)CN1CCc2ccccc2C1)c1ccc2cc(OCCNCCO)ccc2c1 [Compound 368]				< 100 nM	< 100 nM	1000 to 10000 nM	
COC(CNC(=O)c1cc(NC2CCN(C(C)=O)CC2)ncn1)CN1CCc2ccccc2C1 (stereo not drawn) [Compound 542]	101 to 1000 nM	101 to 1000 nM	> 5000 nM				
O=C(NC[C@H](O)CN1CCc2ccccc2C1)c1cncc(OC2CCN(CC(F)(F)F)CC2)c1 [Compound 289]				< 100 nM	< 100 nM	101 to 1000 nM	
CC(=O)N1CC(Nc2cc(C(=O)NC[C@H](O)CN3CCc4ccccc4C3)nc(C(C)C)n2)C1 [Compound 457]	< 100 nM	< 100 nM	< 100 nM				
CSCCN1CCC(Nc2cc(C(=O)NC[C@H](O)CN3CCc4ccccc4C3)ncn2)CC1 [Compound 639]	< 100 nM	< 100 nM	1000 to 10000 nM				
CN(C)CCCOc1ccc(C(=O)NC[C@H](O)CN2CCc3ccccc3C2)cc1 [Compound 345]				< 100 nM	< 100 nM	101 to 1000 nM	
